In patent publication US11464753B2, “Composition for treatment of neurodegenerative disease” (WINNING THE FIGHT INC., priority 2013, dated 2022):
Entries after “also recorded” stand apart in the source; their conditions may differ.

Assays:
ALS patients = assay: Administration of AKG-containing compositions to human ALS patients, observation of symptoms
Description: In one example, 250 mg of GABA was administered three times per day per os, 30 mg of NADH was administered twice per day sublingually, and 3 grams of AAKG were administered, initially, four times per day per os, with the dosage gradually increasing up to 18 grams, if tolerated by the patient.

[1] = test system: patients suffering from neurodegenerative diseases; assay: Oral AKG in patients suffering from neurodegenerative diseases; format: in vivo, human
Description: Initial results in mutant SOD1 mice show similar benefits compared to controls, when administered one example of the composition. […] In some instances, progression of the diseases were delayed or even reversed in human patients.
In Example A of Table A a sustained release formulation of […] is preferred.
For example, an […] ([…] or […]) is included in a composition to be used by patients with a neurodegenerative disease at a baseline dosage.
Results for people with various neurodegenerative diseases have shown that a core composition taken three times daily can provide a combination of supplements that are needed by the patients.

Q: Which “muscle tone and muscle spasticity” value (ALS patients; GABA administered as a supplement, patients with neurodegenerative diseases such as ALS) does the source give for NCCCC(=O)O [GABA, gamma aminobutyric acid] here?
A: restore muscle tone; also recorded: diminished muscle spasticity

Q: O=C(O)CCC(=O)C(=O)O [AKG, alpha-ketoglutaric acid] was tested. Which “improvement at sub-optimal dosage” value ([1]; AKG dosage of only six to eight grams) did it give?
A: some improvement

Q: What about the “symptoms when AKG was withheld” value ([1]; AKG withheld from a patient, then recommenced) of the same compound?
A: symptoms returned

Q: What about the “symptoms of neurodegenerative disease” value ([1]; human patients (ALS, Alzheimers, Muscular Distrophy) taking AKG) of the same compound?
A: fewer symptoms of the diseases; also recorded: marked, obvious improvements

Q: What about the “improvement with hourly AKG” value (ALS patients; human patient, AKG supplement hourly during waking hours compared to four times per day) of the same compound?
A: marked improvement

Q: And the “symptoms of ALS after withdrawal of AKG” value (ALS patients; withdrawal for a short period (a few days))?
A: return of symptoms of ALS
